The results in this text go back to patent US8575197B2, “Pyrolinone derivative and pharmaceutical composition comprising the same” (Shionogi & Co., Ltd., priority 2008, dated 2013).

Structures are written as SMILES. pIC50: −log10 of the molar value.

The target of this experiment is human P2X3 receptor (Homo sapiens (Human), UniProt P56373). Briefly: P2X3 receptor inhibition, ATP-evoked Fluo-3 calcium fluorescence (FDSS 3000). To be noted: C6BU-1 cell transfected with human P2X3 receptor gene; ATP-evoked Fluo-3 fluorescence. Format: cell-based. The method, then: Stably expressing cell line (C6BU-1 cell transfected with human P2X3 receptor gene (GenBank accession number Y07683)) was used. The cells were seeded in a 96-well microtiter plate at a concentration of 8000 cells/well and cultured in the medium (8.3% fetal bovine serum, 8.3% horse serum, 1% antibiotic and antifungal in DMEM) for one day at 37° C. under 5% carbon dioxide atmosphere. The medium was replaced with 4 μM Fluo-3-AM solution (pH7.5) containing 20 mM HEPES, 137 mM NaCl, 2.7 mM KCl, 0.9 mM MgCl2, 5.0 mM CaCl2, 5.6 mM D-glucose, 2.5 mM probenecid, 10% BSA, and 0.08% Pluronic F-127, and incubated at 37° C. under 5% dioxide carbon atmosphere for one hour. The plate was washed with washing buffer (20 mM HEPES, 137 mM NaCl, 2.7 mM KCl, 0.9 mM MgCl2, 5.0 mM CaCl2, 5.6 mM D-glucose, 2.5 mM probenecid, pH7.5), and each well was added with 40 μL of this buffer. The plate was placed in High-Throughput Screening System FDSS 3000 (Hamamatsu Photonics K.K.). Measurement of fluorescence intensity by FDSS 3000 was started, and 40 μL of DMSO solutions containing different concentrations of the test compound as prepared by dilution with dilution buffer (20 mM HEPES, 137 mM NaCl, 2.7 mM KCl, 0.9 mM MgCl2, 5.0 mM CaCl2, 5.6 mM D-glucose, 2.5 mM probenecid, 0.1% Pluronic F-127, pH7.5) were dispensed to each well through the built-in automatic dispenser. Five minutes after, 40 nM ATP solution (50 μL) prepared by dilution with the dilution buffer was dispensed through the built-in automatic dispenser, and the measurement of fluorescence intensity was continued for 3 min. For each well, the specific maximum fluorescence intensity was calculated as the ratio of the maximum fluorescence intensity after addition of the ATP solution to the fluorescence intensity at the starting of the measurement. […] FDSS software (Hamamatsu Photonics K.K.) was used for calculation of the specific maximum fluorescence intensity. IC50 was calculated using Microsoft™ Excel™ (Microsoft Corporation) and XLfit™ (ID Business Solutions Ltd.).
human P2X3 receptor, sequence (P56373 whole entry): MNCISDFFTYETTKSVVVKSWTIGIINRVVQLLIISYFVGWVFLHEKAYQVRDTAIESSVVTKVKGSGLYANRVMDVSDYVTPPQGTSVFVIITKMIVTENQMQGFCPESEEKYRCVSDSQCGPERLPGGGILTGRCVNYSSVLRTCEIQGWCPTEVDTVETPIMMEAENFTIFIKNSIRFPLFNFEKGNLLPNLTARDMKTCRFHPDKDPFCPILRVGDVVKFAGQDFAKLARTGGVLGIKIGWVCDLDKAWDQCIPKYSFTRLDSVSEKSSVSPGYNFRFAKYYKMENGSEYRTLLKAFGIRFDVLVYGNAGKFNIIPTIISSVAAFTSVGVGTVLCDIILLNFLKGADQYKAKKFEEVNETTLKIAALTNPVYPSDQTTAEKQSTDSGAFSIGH

The pIC50 is the IC50 on a negative log10 scale, so that one unit is a factor of ten. As for `C[S+]([O-])CCOc1ccccc1C1c2c(C(C)(C)C)n[nH]c2C(=O)N1c1ccc(-c2ccsc2)cc1` (stereo not shown) [II-076], the pIC50 is 7.92.

Regarding `COc1ncccc1C1c2c(C(C)(C)C)n[nH]c2C(=O)N1c1ccc(-c2ccsc2)nc1` (stereo not shown) [II-268], the pIC50 was 7.62. The result for `COc1ccccc1C1c2c(C(C)(C)CO)n[nH]c2C(=O)N1c1ccc(-c2ccsc2)cc1` (stereo not shown) [II-217] reads 8.52; that for `Cc1nc(-c2ccc(N3C(=O)C(O)=C(C(=O)CC4CCCC4)C3C3CCCCC3)cc2)no1` (stereo not shown) [Compound I-438], 6.31. The same measure for `COCc1ncccc1C1C(C(=O)C(C)C)=C(O)C(=O)N1c1ccc(-c2ccsc2)cc1` (stereo not shown) [Compound I-194]: 7.20. The same measure for `CC(C)c1n[nH]c2c1C(c1ccccc1OCC(N)=O)N(c1ccc(-c3ccsc3)cc1)C2=O` (stereo not shown) [II-050]: 8.15; for `Cc1cc(-c2ccc(N3C(=O)C(O)=C(C(=O)C(C)C)C3c3ccccc3OCCO)cc2)cs1` (stereo not shown) [Compound I-256]: 7.64. For the compound `Cc1ncccc1C1C(C(=O)C(C)(C)C)=C(O)C(=O)N1c1ccc(-c2cccs2)cc1` (stereo not shown) [Compound I-141], the pIC50 is 6.46. As to `CCC(CC)C1C(C(=O)c2ccc(C(=O)N(C)C)cc2)=C(O)C(=O)N1c1ccc(-c2noc(C)n2)cc1` (stereo not shown) [Compound I-002], the negative logarithm of the IC50 (pIC50) was 7.62. The result for `CC(C)(C)c1n[nH]c2c1C(c1ccccc1OCc1nnn[nH]1)N(c1ccc(-c3ccsc3)cc1)C2=O` (stereo not shown) [II-174] reads 8.52; that for `CC(C)(C)C(=O)C1=C(O)C(=O)N(c2ccc(-c3ccsc3)cc2)C1c1cccnc1OCCO` (stereo not shown) [Compound I-166], 7.72.

For `CC(C)C(=O)C1=C(O)C(=O)N(c2ccc(-c3ccsc3)cc2)C1c1ccccc1C(F)(F)F` (stereo not shown) [Compound I-300], the pIC50 was 6.94. Regarding `Cc1ccc(-c2ccc(N3C(=O)C(O)=C(C(=O)C(C)C)C3c3ccccc3N3CCCC3=O)cc2)s1` (stereo not shown) [Compound I-597], the pIC50 was 6.18. The same measure for `COCCOc1ccccc1C1C(C(=O)C(C)C)=C(O)C(=O)N1c1ccc(SC)cc1` (stereo not shown) [Compound I-475]: 6.74; for `Cc1ccc(-c2ccc(N3C(=O)C(O)=C(C(=O)CC(C)C)C3c3ccccc3C(=O)N3CCOCC3)cc2)o1` (stereo not shown) [Compound I-506]: 6.95. The same measure for `COCCOc1ncccc1C1c2c(C(C)C)n[nH]c2C(=O)N1c1ccc(-c2noc(C)n2)cc1` (stereo not shown) [II-280]: 6.61.

Regarding `COCCOc1ncccc1C1c2c(C(C)(C)C)n[nH]c2C(=O)N1c1ccc(-c2ccoc2)cc1` (stereo not shown) [II-038], the pIC50 was 7.85. The same measure for `Cc1ccc(-c2ccc(N3C(=O)C(O)=C(C(=O)C(C)C)C3c3cccnc3OCCCO)cc2)o1` (stereo not shown) [Compound I-478]: 7.47; for `COc1ccccc1C1C(C(=O)CC(C)C)=C(O)C(=O)N1c1ccc(-c2ccsc2)cc1` (stereo not shown) [Compound I-239]: 7.46. The same measure for `CSc1ccc(N2C(=O)C(O)=C(C(=O)C(C)C)C2c2ccccc2OC(C)C)cc1` (stereo not shown) [Compound I-474]: 7.15; for `Cc1cc(-c2ccc(N3C(=O)C(O)=C(C(=O)C(C)C)C3c3ccccc3N3CCCC3=O)cc2)cs1` (stereo not shown) [Compound I-598]: 6.11. The same measure for `Cc1ccc(-c2ccc(N3C(=O)C(O)=C(C(=O)C(C)C)C3c3cccnc3OCCO)cc2)o1` (stereo not shown) [Compound I-483]: 7.05.

Take `COCCOc1ccccc1C1C(C(=O)CC(C)C)=C(O)C(=O)N1c1ccc(-c2cscn2)cc1` (stereo not shown) [Compound I-421]: the pIC50 was 6.72.

On to `COc1ccc(C(=O)C2=C(O)C(=O)N(c3nc4ccc(OC)cc4s3)C2C2CCCCC2)cc1` (stereo not shown) [Compound I-009], for which the pIC50 was 7.85. The result for `COc1ccc(C(=O)C2=C(O)C(=O)N(c3ccc(-c4ccsc4)cc3)C2C2COC(C)(C)OC2)cn1` (stereo not shown) [Compound I-288] reads 7.44; that for `CC(C)C(=O)C1=C(O)C(=O)N(c2ccc(-c3ccsc3)cc2)C1c1ccccc1OCCCO` (stereo not shown) [Compound I-429], 8.15. The result for `COc1ccccc1C1c2c(C(C)(C)C(=O)O)n[nH]c2C(=O)N1c1ccc(-c2ccsc2)cc1` (stereo not shown) [II-165] reads 7.39; that for `COc1ccccc1C1C(C(=O)C(C)C)=C(O)C(=O)N1c1ccc(SC)cc1` (stereo not shown) [Compound I-473], 6.74; that for `CC(C)(C)C(=O)C1=C(O)C(=O)N(c2ccc(-c3ccsc3)cc2)C1c1ccccc1C(=O)O` (stereo not shown) [Compound I-184], 6.79. The same measure for `COCOc1ccccc1C1C(C(=O)CC(C)C)=C(O)C(=O)N1c1ccc(-c2ccc(C)o2)cc1` (stereo not shown) [Compound I-382]: 8.22. With `COc1ccccc1C1c2c(C(C)(C)C)n[nH]c2C(=O)N1c1ccc(-c2ccsc2)nc1` (stereo not shown) [II-254], the negative logarithm of the IC50 (pIC50) was 8.70. The result for `COc1ccccc1C1c2c(C(C)(C)CO)n[nH]c2C(=O)N1c1ccc(-c2noc(C)n2)cc1` (stereo not shown) [II-137] reads 6.83; that for `CC(C)c1n[nH]c2c1C(c1ccccc1OCC(=O)O)N(c1ccc(-c3ccsc3)cc1)C2=O` (stereo not shown) [II-047], 7.96. The result for `COCc1ccccc1C1C(C(=O)C(C)(C)C)=C(O)C(=O)N1c1ccc(-c2cc(C)no2)cc1` (stereo not shown) [Compound I-050] reads 6.19; that for `CC(C)(C)c1n[nH]c2c1C(c1ccccc1OCC#N)N(c1ccc(-c3ccon3)cc1)C2=O` (stereo not shown) [II-108], 7.82; that for `COc1ccccc1C1c2c(C(C)(C)C)n[nH]c2C(=O)N1c1ccc(SC)cc1` (stereo not shown) [II-201], 7.48. In the case of `Cc1ccc(-c2ccc(N3C(=O)C(O)=C(C(=O)CC(C)C)C3c3ccccc3OC(F)F)cc2)o1` (stereo not shown) [Compound I-361], the pIC50 is 7.32.

In the case of `CC(C)c1n[nH]c2c1C(c1ccccc1OCC(C)(C)O)N(c1ccc(-c3ccsc3)cc1)C2=O` (stereo not shown) [II-184], the pIC50 was 7.92. As to `COCCOc1ccccc1C1C(C(=O)C(C)C)=C(O)C(=O)N1c1ccc(-c2ccsc2)cc1` (stereo not shown) [Compound I-161], the pIC50 was 8.15. The result for `COCCOc1ccccc1C1C(C(=O)C(C)(C)C)=C(O)C(=O)N1c1ccc(-c2cc[nH]c2)cc1` (stereo not shown) [Compound I-153] reads 6.67; that for `COCc1ccccc1[C@@H]1C(C(=O)CC(C)C)=C(O)C(=O)N1c1ccc(-c2ccsc2)cc1` [Compound I-356], 8.15; that for `CC(C)C(=O)C1=C(O)C(=O)N(c2ccc(-c3ccon3)cc2)C1c1ccccc1OCC1CCOCC1` (stereo not shown) [Compound I-590], 7.55.

In the case of `COc1ccccc1C1c2c(C(C)(C)CO)n[nH]c2C(=O)N1c1ccc(SC)cc1` (stereo not shown) [II-009], the pIC50 is 7.27. The result for `COc1ccccc1C1C(C(=O)C(C)C)=C(O)C(=O)N1c1ccc(-c2cscn2)cc1` (stereo not shown) [Compound I-416] reads 6.49; that for `CC(C)C(=O)C1=C(O)C(=O)N(c2ccc(-c3ccsc3)cc2)C1c1ccccc1OCC(=O)O` (stereo not shown) [Compound I-185], 6.95; that for `COc1ccc(C(=O)C2=C(O)C(=O)N(c3ccc(-c4cc(C)no4)cc3)C2c2ccccc2OC)cc1` (stereo not shown) [Compound I-027], 7.40. The result for `COc1ccc2sc(N3C(=O)C(O)=C(C(=O)C(C)(C)C)C3c3ccccc3OC)nc2c1` (stereo not shown) [Compound I-038] reads 6.03. The result for `CCOCOc1ccccc1C1C(C(=O)C(C)C)=C(O)C(=O)N1c1ccc(-c2ccon2)cc1` (stereo not shown) [Compound I-543] reads 6.62; that for `COCc1ccccc1[C@H]1C(C(=O)C(C)C)=C(O)C(=O)N1c1ccc(-c2ccsc2)cc1` [Compound I-254], 6.29. Take `Cc1cc(-c2ccc(N3C(=O)C(O)=C(C(=O)CC(C)C)C3c3ccccc3OC(F)F)cc2)on1` (stereo not shown) [Compound I-341]: the pIC50 was 6.29. The same measure for `CC(C)(C)c1n[nH]c2c1C(c1cccc[n+]1[O-])N(c1ccc(-c3cccs3)cc1)C2=O` (stereo not shown) [II-164]: 7.44; for `COc1ncccc1C1C(C(=O)C(C)(C)C)=C(O)C(=O)N1c1ccc(-c2cccs2)cc1` (stereo not shown) [Compound I-115]: 6.97; for `COc1ccccc1C1C(C(=O)C(C)(C)C)=C(O)C(=O)N1c1ccc(C(C)C)cc1` (stereo not shown) [Compound I-037]: 6.02.

For the compound `COc1ccccc1C1c2c(C(C)C)n[nH]c2C(=O)N1c1ccc(-c2ccsc2)c(N(C)C)c1` (stereo not shown) [II-244], the negative logarithm of the IC50 (pIC50) is 6.84.

On to `O=C(C1=C(O)C(=O)N(c2ccc(-c3ccon3)cc2)C1C1CCCCC1)c1ccc(Br)cc1` (stereo not shown) [Compound I-016], for which the pIC50 was 7.10. The result for `Cc1nc(-c2ccc(N3C(=O)C(O)=C(C(=O)CC(C)C)C3c3ccccc3OC(F)F)cc2)no1` (stereo not shown) [Compound I-318] reads 6.48; that for `COc1ncccc1C1C(C(=O)C(C)(C)C)=C(O)C(=O)N1c1ccc(-c2ccsc2)cc1` (stereo not shown) [Compound I-116], 7.11.

Regarding `COCCOc1ccccc1C1c2c(C(C)(C)C)n[nH]c2C(=O)N1c1ccc(-c2noc(C)n2)cc1` (stereo not shown) [II-025], the pIC50 is 7.82.
